# In patent US20050165102A1, “Compositions and dosage forms for enhanced absorption” (priority 2003, published 2005):
# Counter-ions that a name gives are not always drawn. Like-named read-outs stand apart in the source and are kept apart here.
# Experiments:
# [1] = rat, in vivo, po, 40 mg/kg
# [2] = for Bioavailability: relative to iv gabapentin; for gabapentin plasma concentration rat1: 0 h
# [3] = Flushed ligated colonic model in rats (gabapentin); conditions: for gabapentin plasma concentration Rat1: colonic intubation 10 mg/rat
# From the text: The colon was flushed of fecal materials.
# Each segment was observed macroscopically for irritation and any abnormality noted.
# [4] = iv 1 mg/rat, 0 h
smiles,measurement,setting,value
CCCCCCCCCCCC(=O)O.CN(C)C(=N)N=C(N)N [Metformin laurate],time of plasma concentration maximum after treatment,[1],about 1 hour
"CN(C)C(=N)N=C(N)N [Metformin HCl, metformin hydrochloride, reference compound]",time of plasma concentration maximum after treatment,[1],about 1 hour
CCCCCCCCCCCCOS(=O)(=O)O.NCC1(CC(=O)O)CCCCC1 [Gabapentin lauryl sulfate],percent bioavailability versus neat drug,"[2]; duodenal, dosage of 20 mg (FIG. 19C)",higher bioavailability than did the neat drug
"NCC1(CC(=O)O)CCCCC1 [Gabapentin, 1-(aminomethyl)cyclohexaneacetic acid, reference compound]",gabapentin plasma concentration Rat1,[3]; 0 h,0 ng/mL
same,gabapentin plasma concentration Rat1,[3]; 1 h,189 ng/mL
same,Bioavailability,"[3]; colonic, percent of intravenous administration",4.9%
same,macroscopic observation of colonic mucosa for irritation,[3]; excised colonic segments after 4 hour test period,no histopathological change visible to the naked eye
same,gabapentin plasma concentration Rat1,[4],0 ng/mL
same,Bioavailability,[2]; duodenal 5 mg/rat (14.8 / 14.0 mg/kg),62.5 ± 9.4%
same,Bioavailability,[2]; duodenal 10 mg/rat (30.6 / 29.1 mg/kg),44.2 ± 10.1%
same,Bioavailability,[2]; duodenal 20 mg/rat (59.8 / 58.1 mg/kg),26.2 ± 8.2%
same,gabapentin plasma concentration rat1,[2]; duodenal dose 5 mg/rat,0 ng/mL
same,gabapentin plasma concentration rat1,[2]; duodenal dose 10 mg/rat,0 ng/mL
same,gabapentin plasma concentration rat1,[2]; duodenal dose 20 mg/rat,0 ng/mL
